Source: publication PMC9879287 (Current research in chemical biology, 2022)
Values belong to the compound of their own block, whether it stands above or below them.

What was measured:
[1] = biological target: BTK (Homo sapiens, UniProt Q06187); test: Western blotting for BTK in Mino cells; type: cell-based; conditions: 24 h; for BTK degradation in Mino cells: Western blotting
[2] = biological target: BTK-nLuc fusion protein (Homo sapiens, UniProt Q06187+Q96SW2); test: BTK-nLuc endpoint degradation assay; type: cell-based; conditions: HEK-293T cells stably expressing BTK-nLuc, 24 h
[3] = biological target: IKZF1 (Homo sapiens, UniProt Q13422+Q96SW2); test: Western blotting for IKZF1 in Mino cells; type: cell-based; conditions: at 200 nM; assay not given
[4] = biological target: IKZF3 (Homo sapiens, UniProt Q96SW2+Q9UKT9); test: Western blotting for IKZF3 in Mino cells; type: cell-based; conditions: at 40 nM; assay not given
[5] = biological target: T1, IKZF3-nLuc (Homo sapiens, UniProt Q96SW2+Q9UKT9); type: cell-based
[6] = system: Rec-R cells; test: Alarma Blue cell viability assay, Rec-R; type: cell-based
[7] = biological target: T1, IKZF3-nLuc; conditions: other cell line
[8] = system: Jeko-1 cells; test: Alarma Blue cell viability assay, Jeko-1; type: cell-based
[9] = system: Mino cells; test: cells; type: cell-based; conditions: Homo sapiens, read-out: Mino IC50
[10] = biological target: IKZF1-nLuc (Homo sapiens, UniProt Q13422+Q96SW2); conditions: other cell line
[11] = system: MOLM14 cells; test: Alarma Blue cell viability assay, MOLM14; type: cell-based; conditions: Homo sapiens, MOLM-14, 72 h, read-out: MOLM14 IC50
[12] = biological target: His-BTK (Homo sapiens, UniProt Q06187); test: TR-FRET competition binding assay with BTK-BODIPY tracer; conditions: 2 h incubation, 150 nM tracer, 2 nM His-BTK
Chain of His-BTK (Q06187 whole entry): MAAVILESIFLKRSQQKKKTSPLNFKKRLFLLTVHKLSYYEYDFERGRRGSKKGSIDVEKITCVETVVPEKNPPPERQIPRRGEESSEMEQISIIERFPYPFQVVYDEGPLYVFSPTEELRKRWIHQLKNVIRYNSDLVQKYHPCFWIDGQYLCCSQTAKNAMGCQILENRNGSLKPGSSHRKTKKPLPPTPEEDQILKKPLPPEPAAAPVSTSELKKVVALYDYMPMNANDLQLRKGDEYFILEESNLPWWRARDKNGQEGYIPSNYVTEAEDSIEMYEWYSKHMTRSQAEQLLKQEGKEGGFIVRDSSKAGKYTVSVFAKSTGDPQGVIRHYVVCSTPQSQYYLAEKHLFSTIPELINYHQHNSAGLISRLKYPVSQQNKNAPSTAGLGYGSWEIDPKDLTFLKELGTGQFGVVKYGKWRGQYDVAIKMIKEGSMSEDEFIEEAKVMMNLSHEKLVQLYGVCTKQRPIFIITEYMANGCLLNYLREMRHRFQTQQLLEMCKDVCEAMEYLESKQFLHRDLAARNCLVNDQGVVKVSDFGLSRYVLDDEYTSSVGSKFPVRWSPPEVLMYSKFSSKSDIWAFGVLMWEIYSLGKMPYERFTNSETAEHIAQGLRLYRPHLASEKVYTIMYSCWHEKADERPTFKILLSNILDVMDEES

Chain of BTK (Q06187 whole entry, the tested form may be a part): as the sequence (Q06187 whole entry) above
Chain of BTK-nLuc fusion protein (Q06187 whole entry, the tested form may be a part): as the sequence (Q06187 whole entry) above
Chain of BTK-nLuc fusion protein (Q96SW2 whole entry, the tested form may be a part): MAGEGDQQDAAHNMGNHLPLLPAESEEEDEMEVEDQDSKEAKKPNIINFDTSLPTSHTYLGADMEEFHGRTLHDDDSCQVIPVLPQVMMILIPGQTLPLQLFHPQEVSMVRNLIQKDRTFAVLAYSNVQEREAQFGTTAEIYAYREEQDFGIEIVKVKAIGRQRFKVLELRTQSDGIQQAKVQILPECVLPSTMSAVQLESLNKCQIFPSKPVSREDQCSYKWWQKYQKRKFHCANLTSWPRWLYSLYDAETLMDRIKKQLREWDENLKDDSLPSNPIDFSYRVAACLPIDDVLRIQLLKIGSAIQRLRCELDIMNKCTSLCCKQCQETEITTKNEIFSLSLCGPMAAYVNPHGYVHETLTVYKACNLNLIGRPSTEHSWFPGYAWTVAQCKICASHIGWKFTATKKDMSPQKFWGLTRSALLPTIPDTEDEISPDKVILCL
Chain of BTK-nLuc fusion protein (Q16531 whole entry partner, the tested form may be a part): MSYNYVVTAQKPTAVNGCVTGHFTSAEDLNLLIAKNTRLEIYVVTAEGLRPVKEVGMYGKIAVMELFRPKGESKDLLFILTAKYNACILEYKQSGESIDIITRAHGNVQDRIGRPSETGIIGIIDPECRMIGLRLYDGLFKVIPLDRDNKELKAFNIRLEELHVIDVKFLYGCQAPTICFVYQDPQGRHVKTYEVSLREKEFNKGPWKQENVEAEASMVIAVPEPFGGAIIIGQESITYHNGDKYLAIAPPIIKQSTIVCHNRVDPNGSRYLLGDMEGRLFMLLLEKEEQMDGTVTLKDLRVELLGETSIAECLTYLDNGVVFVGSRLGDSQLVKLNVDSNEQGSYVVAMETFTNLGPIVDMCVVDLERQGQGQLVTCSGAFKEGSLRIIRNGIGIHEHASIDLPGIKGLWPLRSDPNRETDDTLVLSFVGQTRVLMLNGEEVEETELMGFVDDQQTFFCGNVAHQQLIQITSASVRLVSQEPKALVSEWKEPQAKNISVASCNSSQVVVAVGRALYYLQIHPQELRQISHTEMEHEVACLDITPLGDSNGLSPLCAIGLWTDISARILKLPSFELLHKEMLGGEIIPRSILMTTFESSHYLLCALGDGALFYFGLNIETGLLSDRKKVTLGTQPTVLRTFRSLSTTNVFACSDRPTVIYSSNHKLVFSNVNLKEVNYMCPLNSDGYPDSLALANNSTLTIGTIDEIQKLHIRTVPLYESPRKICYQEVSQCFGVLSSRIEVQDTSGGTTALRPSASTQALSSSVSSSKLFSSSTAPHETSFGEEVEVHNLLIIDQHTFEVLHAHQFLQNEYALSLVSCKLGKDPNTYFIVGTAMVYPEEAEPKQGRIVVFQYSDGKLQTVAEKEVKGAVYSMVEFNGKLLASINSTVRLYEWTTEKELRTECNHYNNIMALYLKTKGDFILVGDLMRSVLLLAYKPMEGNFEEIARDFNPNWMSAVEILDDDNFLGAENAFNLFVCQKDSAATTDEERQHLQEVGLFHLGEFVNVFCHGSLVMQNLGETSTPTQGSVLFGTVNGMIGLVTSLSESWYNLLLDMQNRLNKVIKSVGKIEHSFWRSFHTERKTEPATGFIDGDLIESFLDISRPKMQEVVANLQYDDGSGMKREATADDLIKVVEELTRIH
Chain of IKZF1 (Q13422 whole entry): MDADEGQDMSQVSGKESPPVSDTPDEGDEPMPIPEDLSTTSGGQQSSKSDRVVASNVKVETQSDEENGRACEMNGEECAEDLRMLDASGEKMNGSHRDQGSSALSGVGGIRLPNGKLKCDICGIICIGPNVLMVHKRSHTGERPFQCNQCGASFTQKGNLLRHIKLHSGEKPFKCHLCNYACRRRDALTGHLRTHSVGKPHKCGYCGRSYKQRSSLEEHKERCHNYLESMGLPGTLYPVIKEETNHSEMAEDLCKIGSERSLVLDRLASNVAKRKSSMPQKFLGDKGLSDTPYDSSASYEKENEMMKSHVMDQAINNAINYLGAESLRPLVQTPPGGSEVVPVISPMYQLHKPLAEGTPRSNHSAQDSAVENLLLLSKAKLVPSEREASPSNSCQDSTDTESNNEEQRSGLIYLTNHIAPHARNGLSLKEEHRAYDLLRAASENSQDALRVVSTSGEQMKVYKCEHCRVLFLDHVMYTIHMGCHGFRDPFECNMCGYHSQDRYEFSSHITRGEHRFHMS
Chain of IKZF1 (Q96SW2 whole entry): as the sequence (Q96SW2 whole entry, the tested form may be a part) above
Chain of IKZF1 (Q16531 whole entry partner): as the sequence (Q16531 whole entry partner, the tested form may be a part) above
Chain of IKZF3 (Q9UKT9 whole entry): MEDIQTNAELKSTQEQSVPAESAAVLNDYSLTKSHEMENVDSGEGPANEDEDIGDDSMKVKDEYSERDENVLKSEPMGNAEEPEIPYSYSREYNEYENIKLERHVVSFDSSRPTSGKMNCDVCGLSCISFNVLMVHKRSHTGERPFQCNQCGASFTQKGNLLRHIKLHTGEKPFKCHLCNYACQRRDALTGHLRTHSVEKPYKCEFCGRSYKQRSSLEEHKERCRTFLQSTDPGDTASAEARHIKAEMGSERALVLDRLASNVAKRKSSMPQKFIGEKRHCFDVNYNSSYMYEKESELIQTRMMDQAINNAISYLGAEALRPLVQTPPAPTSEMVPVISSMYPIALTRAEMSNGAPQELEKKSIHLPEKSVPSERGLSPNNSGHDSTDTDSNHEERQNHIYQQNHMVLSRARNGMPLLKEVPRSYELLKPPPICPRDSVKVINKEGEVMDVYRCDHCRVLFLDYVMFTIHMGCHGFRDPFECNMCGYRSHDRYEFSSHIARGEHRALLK
Chain of IKZF3 (Q96SW2 whole entry): as the sequence (Q96SW2 whole entry, the tested form may be a part) above
Chain of IKZF3 (Q16531 whole entry partner): as the sequence (Q16531 whole entry partner, the tested form may be a part) above
T1 sequence (Q9UKT9 whole entry): as the sequence (Q9UKT9 whole entry) above
T1 sequence (Q96SW2 whole entry): as the sequence (Q96SW2 whole entry, the tested form may be a part) above
T1 sequence (Q16531 whole entry partner): as the sequence (Q16531 whole entry partner, the tested form may be a part) above
Chain of IKZF1-nLuc (Q13422 whole entry): as the sequence (Q13422 whole entry) above
Chain of IKZF1-nLuc (Q96SW2 whole entry): as the sequence (Q96SW2 whole entry, the tested form may be a part) above
Chain of IKZF1-nLuc (Q16531 whole entry partner): as the sequence (Q16531 whole entry partner, the tested form may be a part) above

Compound: O=C1CC[C@H](N2Cc3c(OCc4ccc(CN5CCOCC5)cc4)cccc3C2=O)C(=O)N1 [CC220]
BTK degradation in Mino cells [1]: In contrast to PS-1, PS-3 and CC-220, PS-2 potently induces BTK degradation

Compound: Cc1c(NC(=O)c2ccc(C(C)(C)C)cc2)cccc1-c1cn(C)c(=O)c(Nc2ccc(C(=O)N3CCN(CCCCCCNC(=O)CNc4cccc5c4C(=O)N(C4CCC(=O)NC4=O)C5=O)CC3)cc2)n1 (centres unmarked) [DD-03-171]
BTK WB Dmax ([1]; Mino cells): 99%
BTK degradation in Mino cells [1]: potently induces BTK degradation
BTK-nLuc Dmax [2]: 96%
DC50 ([2]; read-out: BTK-nLuc DC50): 25.9 nM

Compound: Nc1cccc2c1C(=O)N(C1CCC(=O)NC1=O)C2=O (centres unmarked) [Pomalidomide, pomalidomide]
response of Rec-R cells [6]: only Mino cells are responsive
IKZF3 degradation half-life [7]: 1.9 h
response of Jeko-1 cells [8]: only Mino cells are responsive
IC50 [9]: 329 nM
IKZF1 degradation half-life [10]: 4.9 h

Compound: C=CC(=O)Nc1cccc(Oc2nc(Nc3ccc(N4CCN(C)CC4)cc3)nc3ccoc23)c1 [Poseltinib, poseltinib]
IC50 [11]: 2900 nM
IC50 [12]: 1.21 nM

Now from value to compound:

IKZF1 degradation [3]: substantial IKZF1 degradation
IKZF3 degradation [4]: do not degrade IKZF3
Compound: Nc1ccc(N2CCN(C(=O)CNc3cccc4c3C(=O)N(C3CCC(=O)NC3=O)C4=O)CC2)cc1 (centres unmarked) [PS-4]

IKZF1 degradation [3]: less potent
IKZF3 degradation [4]: do not degrade IKZF3
IKZF3 degradation in the nLuc assay [5]: appear to be potent IKZF3 degraders
Compound: CN1CCN(C(=O)CNc2cccc3c2C(=O)N(C2CCC(=O)NC2=O)C3=O)CC1 (centres unmarked) [PS-5]
